A word on the IC50: it is the concentration that inhibits the measured activity by half. Read a high IC50 as weaker potency in that assay. What is called inhibition is the relative decrease from the control value, in per cent.

Some results are limits rather than exact numbers.

The record followed here is US10689362B2, “Quinoxaline compounds as type III receptor tyrosine kinase inhibitors” (Development Center for Biotechnology, priority 2016, dated 2020).

The target in experiment [1] is CSF-1R kinase (Homo sapiens (Human), UniProt P07333). Briefly: CSF-1R kinase assay (AlphaScreen). Particulars: class symbol. The experiment is classed as biochemical. How it is done:
Inhibition of CSF-1R kinase activity by a test compound disclosed herein was estimated by AlphaScreen (PerkinElmer). […] Reactions were incubated at 30° C. for 45 min and stopped by adding 5 μL of 50 mM EDTA. Analysis of resulting product using an AlphaScreen kit, and counted with Enspire Alpha (PerkinElmer). […] The IC50 values of quinoxaline compounds of this invention against CSF-1R kinase were determined using the GraphPad Prism 5 software.
(In Alpha technology, singlet oxygen from a donor bead excites a nearby acceptor bead.)

Experiment [2] addresses c-KIT kinase (Homo sapiens (Human), UniProt P10721). The experiment in a line: c-KIT kinase assay (radiometric). Format: biochemical. The gist of the method:
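Recombinant c-Kit (20 ng) with 2 μg Poly-(Glu4:Tyr1) in MOPS pH 7.0 buffer with MgCl2/MnCl2, 10 μM ATP plus [^33P]-ATP, 4% DMSO final, 60 min at 30° C. Stopped with phosphoric acid, filter-captured and scintillation counted; IC50 from curve fit.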

The target of experiment [3] is FLT3 kinase (Homo sapiens (Human), UniProt P36888). Briefly: FLT3 kinase assay (radiometric). The experiment is classed as biochemical. Particulars: bound. The gist of the method:
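Recombinant FLT3 (5 ng) phosphorylating poly(Glu4:Tyr1) (2 μg) with 10 μM ATP plus [^33P]-ATP in MOPS pH 7.0 buffer, 4% DMSO final, 60 min at 30° C. Reaction stopped with phosphoric acid, filter-captured and scintillation-counted; IC50 derived from dose-response.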

Experiment [4] deals with PDGFRβ kinase (Homo sapiens (Human), UniProt P09619). The experiment in a line: PDGFRβ kinase assay (radiometric). The experiment is classed as biochemical. The gist of the method:
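Radiometric assay: recombinant PDGFRβ with poly(Glu4:Tyr1) in MOPS pH 7.0 buffer containing Mg2+/Mn2+, 10 μM ATP plus [33P]-ATP, and compound at 4% DMSO final. Incubated 60 min at 30° C, stopped with phosphoric acid, filter-captured and scintillation-counted. IC50 from curve fitting.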

The subject of experiment [5] is CSF-1-dependent M-NFS-60 mouse myeloid leukemia cell. The experiment in a line: M-NFS-60 cell proliferation assay (CellTiter-96). Format: cell-based. Particulars: Cytotoxicity, M-NFS-60 cells, 72 hours. Put shortly:
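CSF-1-dependent M-NFS-60 cells seeded at 2000 cells/well, settled overnight at 37 °C, 5% CO2, then exposed to increasing compound concentrations for 72 h. Viability read by CellTiter 96 AQueous One reagent (4 h) at 490 nm absorbance.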

For experiment [6], the system named is MV4-11 human acute myeloid leukemia cell with FLT3-ITD mutation. The experiment in a line: MV4-11 cell proliferation assay (CellTiter-96). Format: cell-based. To be noted: Cytotoxicity, MV4-11 cells, 72 hours. Put shortly: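 MV4-11 cells (FLT3-ITD, FLT3-dependent growth) seeded at 6500 cells/well, incubated overnight at 37° C., 5% CO2, then exposed to increasing compound concentrations for 72 hours. Viability read by CellTiter96 AQueous One reagent (4 hours), absorbance at 490 nm.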

Experiment [7] concerns Kasumi-1 human acute myeloid leukemia cell with c-KIT N822K activating mutation. Briefly: Kasumi-1 cell proliferation assay (CellTiter-96). The experiment is classed as cell-based. Particulars: Cytotoxicity, Kasumi-1 cells, 72 hours. The gist of the method:
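Kasumi-1 cells, seeded at 64000 cells/well and incubated overnight at 37 °C, were exposed to increasing compound concentrations for 72 h. Viability was measured by CellTiter96 AQueous One reagent (4 h) and absorbance at 490 nm.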

Experiment [8] has as its system THP-1 human acute monocytic leukemia cell harboring NRAS G12D mutation. The experiment in a line: THP-1 cell proliferation assay (counter screen, CellTiter-96). To be noted: Cytotoxicity, THP-1 cells (counter screen), 72 hours. The experiment is classed as cell-based. Put shortly: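 THP-1 cells, RTK-independent owing to NRAS G12D, seeded at 5000/well, incubated overnight at 37 °C/5% CO2, then exposed to increasing compound concentrations for 72 h. CellTiter96 AQueous One reagent added for 4 h; viability from absorbance at 490 nm.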

Experiment [9] relates to osteoclast precursors (osteoclast differentiation). Briefly: Osteoclast tartrate-resistant acid phosphatase assay. The experiment is classed as cell-based. To be noted: 168 h, at 1 μM treatment, 7 days, RANKL and M-CSF, read-out: inhibition activity against osteoclast differentiation. How it is done: A serial dilution of test compound was dispensed into a 96-well black clear bottom plate. Compound was diluted by the addition of DMEM media supplemented with 10% characterized fetal bovine serum. Diluted compound was transferred to a 96-well black clear bottom plate. Three thousand osteoclast precursors (Lonza, Walkersville, Md.) were added per well in growth medium containing Receptor Activator of Nuclear Factor Kappa-beta ligand (RANKL) and M-CSF. […] At the end of the incubation period, 50 μL of supernatant from each well was transferred to a clear 96-well plate. Tartrate-resistant acid phosphatase activity in the supernatant samples was determined using an acid phosphatase assay kit (Sigma, St. Louis, Mo.). Absorbance was measured at 550 nm using a plate reader. […] The Inhibition activity against osteoclast differentiation for each compound at 1 μM treatment in duplicate was measured.

Sequence of FLT3 kinase (P36888 27-993): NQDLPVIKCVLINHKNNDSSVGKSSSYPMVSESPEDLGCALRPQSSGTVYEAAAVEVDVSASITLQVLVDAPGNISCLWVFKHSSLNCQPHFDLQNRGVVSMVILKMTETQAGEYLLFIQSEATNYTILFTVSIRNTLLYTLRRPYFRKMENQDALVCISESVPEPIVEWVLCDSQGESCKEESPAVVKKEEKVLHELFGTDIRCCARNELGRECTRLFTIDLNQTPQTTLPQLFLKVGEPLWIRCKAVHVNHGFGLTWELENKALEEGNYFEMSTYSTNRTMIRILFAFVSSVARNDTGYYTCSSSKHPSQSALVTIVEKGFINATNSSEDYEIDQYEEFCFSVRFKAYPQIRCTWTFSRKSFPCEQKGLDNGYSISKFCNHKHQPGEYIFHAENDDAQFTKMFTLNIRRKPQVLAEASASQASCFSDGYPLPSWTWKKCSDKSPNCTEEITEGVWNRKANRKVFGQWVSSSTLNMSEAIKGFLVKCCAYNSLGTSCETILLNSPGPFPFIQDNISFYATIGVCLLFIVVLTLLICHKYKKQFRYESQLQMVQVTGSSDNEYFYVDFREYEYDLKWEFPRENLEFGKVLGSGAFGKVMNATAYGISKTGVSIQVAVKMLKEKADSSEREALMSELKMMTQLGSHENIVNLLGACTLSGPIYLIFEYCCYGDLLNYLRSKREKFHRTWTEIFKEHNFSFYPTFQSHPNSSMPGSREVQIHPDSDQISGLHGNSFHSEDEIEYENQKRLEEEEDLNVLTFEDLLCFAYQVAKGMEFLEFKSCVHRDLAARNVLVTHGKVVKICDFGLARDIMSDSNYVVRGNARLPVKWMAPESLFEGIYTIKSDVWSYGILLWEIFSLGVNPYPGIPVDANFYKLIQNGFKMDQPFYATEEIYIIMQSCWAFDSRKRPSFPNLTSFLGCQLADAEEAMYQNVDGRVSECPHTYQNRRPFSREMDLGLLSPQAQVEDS
Sequence of PDGFRβ kinase (P09619 33-1106): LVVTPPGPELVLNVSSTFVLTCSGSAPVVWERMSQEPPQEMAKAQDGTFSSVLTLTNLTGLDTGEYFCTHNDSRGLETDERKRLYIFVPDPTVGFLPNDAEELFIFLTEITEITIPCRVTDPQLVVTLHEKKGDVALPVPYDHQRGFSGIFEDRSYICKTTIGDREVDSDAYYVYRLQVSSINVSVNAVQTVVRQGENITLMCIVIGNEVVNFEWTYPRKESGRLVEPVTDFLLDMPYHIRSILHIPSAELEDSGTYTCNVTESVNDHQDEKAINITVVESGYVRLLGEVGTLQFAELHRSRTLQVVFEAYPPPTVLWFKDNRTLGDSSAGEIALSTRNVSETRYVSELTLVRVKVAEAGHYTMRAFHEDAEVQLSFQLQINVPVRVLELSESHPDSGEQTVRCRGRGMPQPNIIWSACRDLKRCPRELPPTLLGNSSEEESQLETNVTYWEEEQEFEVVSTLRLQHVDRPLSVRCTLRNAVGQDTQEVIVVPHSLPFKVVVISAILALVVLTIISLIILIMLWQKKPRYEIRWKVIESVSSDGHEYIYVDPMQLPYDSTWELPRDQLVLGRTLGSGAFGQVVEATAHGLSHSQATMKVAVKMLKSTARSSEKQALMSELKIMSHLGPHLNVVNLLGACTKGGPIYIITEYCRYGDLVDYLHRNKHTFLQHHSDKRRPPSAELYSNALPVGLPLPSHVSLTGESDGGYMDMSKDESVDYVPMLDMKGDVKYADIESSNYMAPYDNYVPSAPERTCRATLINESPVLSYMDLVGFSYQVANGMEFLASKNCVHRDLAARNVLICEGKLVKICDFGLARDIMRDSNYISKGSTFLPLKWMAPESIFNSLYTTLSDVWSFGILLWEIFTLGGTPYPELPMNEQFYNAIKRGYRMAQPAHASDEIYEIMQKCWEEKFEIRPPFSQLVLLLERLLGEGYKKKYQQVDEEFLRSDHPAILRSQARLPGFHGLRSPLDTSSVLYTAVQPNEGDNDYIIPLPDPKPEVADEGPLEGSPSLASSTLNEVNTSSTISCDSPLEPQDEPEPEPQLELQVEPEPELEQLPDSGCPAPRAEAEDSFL
Sequence of c-KIT kinase (P10721 26-976): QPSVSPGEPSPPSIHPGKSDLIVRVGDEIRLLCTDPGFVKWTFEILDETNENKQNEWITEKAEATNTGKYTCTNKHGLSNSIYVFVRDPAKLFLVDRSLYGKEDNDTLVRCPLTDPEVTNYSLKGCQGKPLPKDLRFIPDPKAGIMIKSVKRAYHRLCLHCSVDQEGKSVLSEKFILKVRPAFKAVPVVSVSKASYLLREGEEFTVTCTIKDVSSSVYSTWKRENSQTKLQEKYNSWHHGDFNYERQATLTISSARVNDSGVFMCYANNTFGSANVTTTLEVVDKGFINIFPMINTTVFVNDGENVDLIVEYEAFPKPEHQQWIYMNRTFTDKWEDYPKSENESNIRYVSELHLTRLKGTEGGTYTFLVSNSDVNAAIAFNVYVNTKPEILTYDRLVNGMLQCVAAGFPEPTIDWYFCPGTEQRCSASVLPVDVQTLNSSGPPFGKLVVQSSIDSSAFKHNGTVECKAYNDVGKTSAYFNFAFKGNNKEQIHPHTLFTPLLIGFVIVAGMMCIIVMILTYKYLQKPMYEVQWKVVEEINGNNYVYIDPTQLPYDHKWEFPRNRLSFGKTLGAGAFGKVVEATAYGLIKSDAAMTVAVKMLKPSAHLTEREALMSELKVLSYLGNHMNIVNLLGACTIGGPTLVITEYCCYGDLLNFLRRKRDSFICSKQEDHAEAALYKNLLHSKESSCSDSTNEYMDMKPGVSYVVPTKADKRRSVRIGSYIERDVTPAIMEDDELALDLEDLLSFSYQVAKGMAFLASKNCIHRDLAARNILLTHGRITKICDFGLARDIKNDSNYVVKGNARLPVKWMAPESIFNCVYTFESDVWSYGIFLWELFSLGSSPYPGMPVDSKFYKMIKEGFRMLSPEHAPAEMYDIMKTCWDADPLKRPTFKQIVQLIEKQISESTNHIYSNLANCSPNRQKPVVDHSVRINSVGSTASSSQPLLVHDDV
Sequence of CSF-1R kinase (P07333 20-972): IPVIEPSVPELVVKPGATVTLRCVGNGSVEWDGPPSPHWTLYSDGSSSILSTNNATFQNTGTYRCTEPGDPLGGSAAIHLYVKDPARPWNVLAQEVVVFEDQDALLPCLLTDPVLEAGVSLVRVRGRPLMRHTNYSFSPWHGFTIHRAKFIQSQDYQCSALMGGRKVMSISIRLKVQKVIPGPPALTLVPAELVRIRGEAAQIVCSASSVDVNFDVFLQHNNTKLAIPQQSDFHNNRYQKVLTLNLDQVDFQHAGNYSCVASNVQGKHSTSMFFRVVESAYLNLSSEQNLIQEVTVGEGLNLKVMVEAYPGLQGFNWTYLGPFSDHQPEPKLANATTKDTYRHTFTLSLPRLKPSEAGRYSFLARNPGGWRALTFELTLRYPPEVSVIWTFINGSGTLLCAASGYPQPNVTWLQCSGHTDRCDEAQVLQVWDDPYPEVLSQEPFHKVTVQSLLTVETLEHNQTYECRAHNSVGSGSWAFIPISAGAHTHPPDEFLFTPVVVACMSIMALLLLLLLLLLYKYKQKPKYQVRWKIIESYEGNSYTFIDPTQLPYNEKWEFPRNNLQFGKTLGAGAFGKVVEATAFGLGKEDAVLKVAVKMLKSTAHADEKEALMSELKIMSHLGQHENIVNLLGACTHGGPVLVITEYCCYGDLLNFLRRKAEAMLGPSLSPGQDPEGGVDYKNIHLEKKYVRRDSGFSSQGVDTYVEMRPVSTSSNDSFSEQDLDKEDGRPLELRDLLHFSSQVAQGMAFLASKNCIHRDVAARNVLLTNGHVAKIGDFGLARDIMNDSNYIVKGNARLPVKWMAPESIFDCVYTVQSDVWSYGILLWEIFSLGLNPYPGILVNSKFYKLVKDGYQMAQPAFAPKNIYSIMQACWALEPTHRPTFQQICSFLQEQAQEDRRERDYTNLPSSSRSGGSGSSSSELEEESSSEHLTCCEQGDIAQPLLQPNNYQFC

Turning to `COc1ccc(COc2ccc(Nc3ccc4ncc(N5CCOCC5)nc4c3C#N)cc2OC)cc1OC` [Example 58, 6-((4-((3,4-dimethoxybenzyl)oxy)-3-methoxyphenyl)amino)-3-morpholinoquinoxaline-5-carbonitrile], the IC50 in experiment [1] was less than 100 nM; in [2] (class symbol), less than 100 nM; in experiment [3], more than 1000 nM; in [4] (class symbol), 300 to 1000 nM; in [5] it was less than 300 nM; in [6], more than 10000 nM. For the same molecule, the IC50 in experiment [7] was less than 300 nM; in experiment [8] it was more than 10000 nM. Moreover, the inhibition at 1 µM in experiment [9] was more than 50%.

On to `COc1ccc(COc2ccc(Nc3ccc4ncc(N5CCNCC5)nc4c3C#N)cc2OC)cn1` [Example 59, 6-((3-methoxy-4-((6-methoxypyridin-3-yl)methoxy)phenyl)amino)-3-(piperazin-1-yl)quinoxaline-5-carbonitrile], for which the IC50 is less than 100 nM in [1]; 100 to 300 nM in [2] (class symbol); more than 1000 nM in experiment [3]; more than 1000 nM in experiment [4] (bound); less than 300 nM in [5]; 1000 to 10000 nM in experiment [6]. Further, the IC50 in [7] lay within 300 to 1000 nM; in experiment [8], 1000 to 10000 nM. Besides, in [9], the inhibition at 1 µM was more than 50%.

Turning to `COc1ccc(COc2ccc(N(C)c3ccc4ncc(N5CCOCC5)nc4c3C#N)cc2OC)cc1` [Example 60, 6-((3-methoxy-4-((4-methoxybenzyl)oxy)phenyl)(methyl)amino)-3-morpholinoquinoxaline-5-carbonitrile], the IC50 in experiment [1] is less than 100 nM; in [2] (class symbol), 300 to 1000 nM; in experiment [3], more than 1000 nM; in [4] (bound), more than 1000 nM; in experiment [5], less than 300 nM; in experiment [6], 1000 to 10000 nM. For the same molecule, the IC50 is 1000 to 10000 nM in experiment [7] and more than 10000 nM in [8]. Also, the inhibition at 1 µM in [9] was more than 50%.

As to `COc1ccc(COc2ccc(Nc3ccc4ncc(N5CCCC5)nc4c3C#N)cc2OC)cc1` [Example 62, 6-((3-methoxy-4-((4-methoxybenzyl)oxy)phenyl)amino)-3-(pyrrolidin-1-yl)quinoxaline-5-carbonitrile], the IC50 is less than 100 nM in experiment [1]; less than 100 nM in experiment [2] (class symbol); more than 1000 nM in experiment [3]; 300 to 1000 nM in experiment [4] (class symbol); less than 300 nM in experiment [5]; more than 10000 nM in experiment [6]. In addition, the IC50 is less than 300 nM in experiment [7] and more than 10000 nM in experiment [8]. In [9], the inhibition at 1 µM is more than 50%.

For the molecule `COc1cc(Nc2ccc3ncc(N4CCOCC4)nc3c2C#N)ccc1OCc1ccc(C#N)cc1` [Example 64, 6-((4-((4-cyanobenzyl)oxy)-3-methoxyphenyl)amino)-3-morpholinoquinoxaline-5-carbonitrile], the concentration for half-maximal inhibition (IC50) in experiment [1] was less than 100 nM; in [2] (class symbol) it was less than 100 nM; in [3], more than 1000 nM; in experiment [4] (bound), more than 1000 nM; in [5] it was less than 300 nM; in experiment [6], 1000 to 10000 nM. The figures for the IC50 in experiment [7] and in experiment [8] were 300 to 1000 nM and more than 10000 nM, respectively. Moreover, the inhibition at 1 µM in experiment [9] is more than 50%.

As to `COc1cc(Nc2ccc3ncc(N4CCOCC4)nc3c2C#N)ccc1OCc1cccc(C#N)c1` [Example 65, 6-((4-((3-cyanobenzyl)oxy)-3-methoxyphenyl)amino)-3-morpholinoquinoxaline-5-carbonitrile], the IC50 in [1] was less than 100 nM; in [2] (class symbol) it was 100 to 300 nM; in experiment [3], more than 1000 nM; in experiment [4] (bound), more than 1000 nM; in experiment [5] it was less than 300 nM; in experiment [6] it was more than 10000 nM. Further, the IC50 in experiment [7] and in experiment [8] was more than 10000 nM each time. Also, in [9], the inhibition at 1 µM was more than 50%.

`COc1ccc(COc2ccc(Nc3ccc4ncc(N5CCN(CCO)CC5)nc4c3C#N)cc2OC)cc1` [Example 66, 3-(4-(2-hydroxyethyl)piperazin-1-yl)-6-((3-methoxy-4-((4-methoxybenzyl)oxy)phenyl)amino)quinoxaline-5-carbonitrile]: the IC50 was less than 100 nM in experiment [1]; less than 100 nM in [2] (class symbol); more than 1000 nM in [3]; 300 to 1000 nM in experiment [4] (class symbol); less than 300 nM in experiment [5]; 1000 to 10000 nM in experiment [6]. Further, the IC50 is less than 300 nM in experiment [7] and more than 10000 nM in [8]. Also, in experiment [9], the inhibition at 1 µM is more than 50%.

As for `COc1cc(Nc2ccc3ncc(N4CCNCC4)nc3c2C#N)ccc1OCc1ccc(C)nc1` [Example 67, 6-((3-methoxy-4-((6-methylpyridin-3-yl)methoxy)phenyl)amino)-3-(piperazin-1-yl)quinoxaline-5-carbonitrile], the concentration for half-maximal inhibition (IC50) in experiment [1] was less than 100 nM; in [2] (class symbol), less than 100 nM; in experiment [3], more than 1000 nM; in [4] (bound), more than 1000 nM; in [5], less than 300 nM; in [6], 1000 to 10000 nM. Moreover, the IC50 in experiment [7] and in [8] was 1000 to 10000 nM each time. In addition, the inhibition at 1 µM in [9] was more than 50%.

For the molecule `COc1ccc(COc2ccc(Nc3ccc4ncc(N5CCC(OC(C)=O)CC5)nc4c3C#N)cc2OC)cc1` [Example 68, 1-(8-cyano-7-((3-methoxy-4-((4-methoxybenzyl)oxy)phenyl)amino)quinoxalin-2-yl)piperidin-4-yl acetate], the IC50 was less than 100 nM in [1]; less than 100 nM in experiment [2] (class symbol); more than 1000 nM in experiment [3]; more than 1000 nM in [4] (bound); less than 300 nM in [5]; 1000 to 10000 nM in [6]. In addition, the half-maximal inhibitory concentration (IC50) was less than 300 nM in [7] and more than 10000 nM in experiment [8]. The inhibition at 1 µM in experiment [9] was more than 50%.

For `COc1ccc(COc2ccc(Nc3ccc4ncc(N5CCC(C)CC5)nc4c3C#N)cc2OC)cn1` [Example 69, 6-((3-methoxy-4-((6-methoxypyridin-3-yl)methoxy)phenyl)amino)-3-(4-methylpiperidin-1-yl)quinoxaline-5-carbonitrile], the IC50 in [1] was less than 100 nM; in experiment [2] (bound), more than 1000 nM; in [3], more than 1000 nM; in [4] (bound) it was more than 1000 nM; in experiment [5], 300 to 1000 nM; in experiment [6], more than 10000 nM. Also, the concentration for half-maximal inhibition (IC50) in experiment [7] and in experiment [8] was more than 10000 nM throughout. Besides, the inhibition at 1 µM in experiment [9] was more than 50%.

On to `COc1ccc(COc2ccc(Nc3ccc4ncc(N5CCC(COC(C)=O)CC5)nc4c3C#N)cc2OC)cc1` [Example 71, (1-(8-cyano-7-((3-methoxy-4-((4-methoxybenzyl)oxy)phenyl)amino)quinoxalin-2-yl)piperidin-4-yl)methyl acetate], for which the IC50 in experiment [1] is less than 100 nM; in [2] (class symbol) it was less than 100 nM; in [3], more than 1000 nM; in experiment [4] (bound), more than 1000 nM; in [5], less than 300 nM; in [6] it was more than 10000 nM. Besides, the 50% inhibitory concentration (IC50) in experiment [7] is less than 300 nM; in experiment [8], more than 10000 nM. Moreover, the inhibition at 1 µM in [9] was more than 50%.
